From US20060057669A1, “Inactive transcription factor tif-ia and uses thereof” (priority 2002, published 2006)

Assays:
[1] = tested on: pre-rRNA synthesis in NIH3T3 cells; assay: Northern blot of cellular pre-rRNA after mitogenic stimulation; format: cell-based; conditions: starved NIH3T3 cells stimulated by serum, bFGF, EGF or TPA; 40 μM PD98059, 30 min
Description: (C) PD98059 inhibits mitogenic stimulation of Pol I transcription. NIH3T3 cells were starved in DMEM/0.1% FCS for 12 hr before stimulation by serum, 10 ng/ml bFGF, 50 ng/ml EGF or 0.1 μM TPA in the absence or presence of 40 μM PD98059 for 30 min. Cellular RNA was isolated and the level of pre-rRNA, c-jun mRNA and cytochrome C oxidase (cox) mRNA was monitored on Northern blots.
NIH3T3, HEK293T and CLL39 cells were cultured in Dulbecco's modified Eagles medium (DMEM) supplemented with 10% fetal calf serum. Cells were transfected with 5 μg of DNA per 10^6 cells using the calcium phosphate DNA coprecipitation method. Total RNA was isolated after 48 h and analyzed on Northern blots as described (Voit et al., EMBO J. 18 (1999), 1891-1899). Cellular pre-rRNA levels were monitored by hybridization to antisense RNA complementary to the first 155 nucleotides of unprocessed 45S pre-RNA. Transcripts from the rDNA reporter plasmid were monitored by hybridization to a riboprobe that is complementary to pUC sequences inserted between the rDNA promoter and terminator sequences of pMrl930-BH. […] Transcripts from the rDNA reporter plasmid were monitored by hybridization to a riboprobe that is complementary to pUC sequences inserted between the rDNA promoter and terminator sequences of pMrl930-BH. […]

Pol I transcription = assay: Complementation of Pol I transcription in nuclear extracts from PD98059-treated FM3A cells; format: biochemical
Description: (C) TIF-IA, but not UBF, rescues Pol I transcription in extracts from PD98059-treated cells. Nuclear extracts from untreated or PD98059-treated FM3A cells were supplemented with 20 and 40 ng of purified TIF-IA and/or UBF (10 ng in lanes 7 and 9, 50 ng in lanes 3, 8 and 10).
(D) TIF-IA activates transcription in extracts from PD98059-treated cells in the presence of AMP-PNP and GMP-PNP. Nuclear extracts from PD98059-treated FM3A cells were supplemented with 40 ng of purified TIF-IA and assayed in the standard transcription system containing ATP and GTP (ATP, lanes 1, 2) or AMP-PNP and GMP-PNP (AMP-PNP, lanes 3, 4)
(D) ERK/RSK-dependent phosphorylation activates Pol I transcription in vitro. Nuclear extracts from PD98059-treated FM3A cells were supplemented with 40 ng of TIF-IA, 10 ng of HA-RSK, or 10 ng of HA-ERK as indicated, and transcriptional activity was assayed in the standard transcription system containing ATP and GTP (lanes 4-8) or AMP-PNP and GMP-PNP (lanes 9-13).
Nuclear extracts were prepared from exponentially growing (8×10^5 cells/ml), density-arrested or PD98059-treated (CN Bioscience, Bad Soden, Germany) 40 μM, 0.5 hr) or rapamycin-treated FM3A cells (ATCC, Manassas, USA). 25 μl assays contained 50 ng of template DNA (pMr600/EcoRI), 30 μg nuclear extract proteins and 12 mM Hepes-KOH, [pH8.0], 0.1 mM EDTA, 5 mM MgCl2, 80 mM KCl, 10 mM creatine phosphate, 12% (v/v) glycerol, 0.66 mM each of ATP, GTP and CTP, 0.01 mM UTP and 0.5 μCi [α-^32P]UTP (5000 Ci/mmol). After incubation for 60 min at 30° C., RNA was extracted and analyzed on non-denaturing 5% polyacrylamide gels
To test whether both TIF-IA and UBF, or TIF-IA alone, were targeted by ERK-mediated phosphorylation, nuclear extracts from untreated and PD98059-treated cells were assayed for rDNA transcription in the absence and presence of exogenous TIF-IA or UBF (FIG. 2C). If both UBF and TIF-IA were inactivated by PD98059, rescue of Pol I transcriptional activity would require both factors, whereas TIF-IA alone would be sufficient if it was the only factor that is inactivated by inhibition of the ERK pathway. […]

| Molecule | effect on serum- and growth factor-induced pre-rRNA synthesis [1] | rescue of Pol I transcription in extracts from PD98059-treated cells (Pol I transcription; in the presence of AMP-PNP and GMP-PNP) | rescue of Pol I transcription in extracts from PD98059-treated cells (Pol I transcription; standard transcription system containing ATP and GTP) |
| --- | --- | --- | --- |
| COc1cccc(-c2cc(=O)c3ccccc3o2)c1N [PD98059] | blocked serum- and growth factor-induced stimulation of pre-rRNA synthesis | – | – |
| TIF-IA: wild-type human transcription initiation factor TIF-IA, accession No. AJ272050 | – | activation of Pol I transcription by TIF-IA was also observed | rescued |
